Measurements reported in patent EP0240907A2, “Use of trans-4-[(2-amino-3,5-dibromobenzyl)amino]cyclohexanol” (priority 1986, dated 1987).
Structures can show the parent of a compound that is named as a salt.

Key:
[1] = system: tracheobronchiales oder sinubronchiales Syndrom; conditions: inhalate in 1 %iger Emser Sole; patients who also had rhinitis needed additional cold remedies; cited from earlier work
[2] = physchem; assay type: physicochemical; conditions: water
Procedure: Bei Anwendung von Ambroxol muß die Dosis 50 bis 100 mg betragen. Berücksichtigt man, daß Ambroxol nur in 1 %iger Lösung stabil ist und alle konzentrierteren Lösungen bei […] Temperaturen zur […], so zeigt dies, […] in der Praxis in einer Dosis von 5 bis 10 ml zur Anwendung kommen müßte, die völlig unrealistisch ist.

[3] = system: Kaninchenauge; conditions: 1%-ige Ambroxol-HCL-Lösung; cited from earlier work

Compound | Wirksamkeit bei Patienten mit tracheobronchialem oder sinubronchialem Syndrom [1] | solubility [2] | Reizung des Kaninchenauges [3]
Nc1c(Br)cc(Br)cc1CN[C@H]1CC[C@H](O)CC1 [Ambroxol, trans-4-[(2-Amino-3,5-dibrom-benzyl)-amino]cyclohexanol] | wirksam | ≤ 10000 µg/mL | 
Nc1c(Br)cc(Br)cc1CN[C@H]1CC[C@H](O)CC1 [Ambroxol-HCL] |  |  | keine Reizung
